Test results published in patent US8765779B2, “Tricyclic derivatives and their pharmaceutical use and compositions” (Cephalon, Inc., priority 2009, dated 2014).

Molecular target: T1, human 5-HT6 receptor (Homo sapiens, UniProt P50406)
T1 construct: host or cells: CHO-K1 cells, stably transfected; membranes prepared in house
Test: Human 5-HT6 Receptor Binding Assay ([3H]LSD displacement, scintillation beads)
Conditions: membranes of CHO-K1 cells with recombinant human 5-HT6, 4 nM [3H]LSD; Table 1, class symbols; read-out: h5-HT6 (Ki)

T1 sequence (P50406 whole entry): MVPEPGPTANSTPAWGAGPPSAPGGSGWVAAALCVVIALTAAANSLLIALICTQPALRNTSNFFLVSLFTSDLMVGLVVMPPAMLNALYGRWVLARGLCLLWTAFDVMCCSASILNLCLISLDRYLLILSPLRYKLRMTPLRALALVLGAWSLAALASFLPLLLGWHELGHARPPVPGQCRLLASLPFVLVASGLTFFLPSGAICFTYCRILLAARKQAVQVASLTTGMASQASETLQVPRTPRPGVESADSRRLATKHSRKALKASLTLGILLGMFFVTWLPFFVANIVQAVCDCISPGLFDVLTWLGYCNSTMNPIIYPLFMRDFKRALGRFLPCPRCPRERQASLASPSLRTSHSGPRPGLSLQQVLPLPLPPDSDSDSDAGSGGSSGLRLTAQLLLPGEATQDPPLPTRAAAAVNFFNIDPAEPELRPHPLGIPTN

Row | SMILES | Ki [nM]
1 | CC12CCNCC1Oc1ccc(OS(=O)(=O)c3cc4ccccc4o3)cc12 (centres unmarked) [Example 765] | 500 to 1000
2 | Cc1cccc(S(=O)(=O)c2ccc3c(c2)OC2CNCCC32)n1 (centres unmarked) [Example 328] | < 500
3 | O=S(=O)(c1ccc2c(c1)OC1CNCCC21)c1cccnc1F (centres unmarked) [Example 398] | < 500
4 | CC1(C)CNC2(CCOCC2)c2oc3cc([S+]([O-])c4cccc(F)c4)ccc3c21 (racemic) [Example 47, 7-[(3-fluorophenyl)sulfinyl]-4,4-dimethyl-2′,3,3′,4,5′,6′-hexahydro-2H-spiro[1-benzofuro[2,3-c]pyridine-1,4′-pyran]] | < 500
5 | [O-][S+](c1ccc(OC(F)(F)F)cc1)c1ccc2c3c(oc2c1)CNCC3 (centres unmarked) [Example 226, 7-{[4-(trifluoromethoxy)phenyl]sulfi-nyl}-1,2,3,4-tetrahydro[1]benzofuro[2,3-c]pyridine] | > 1000
6 | O=S(=O)(c1cccc(F)c1)c1ccc2c3c([nH]c2c1)C1(CCCOC1)NCC3 (centres unmarked) [Example 317] | < 500
7 | O=S(=O)(c1ccc2c3c(oc2c1)CNCC3)c1cccc2ccccc12 [Example 202] | < 500
8 | O=S(=O)(c1ccc2oc3c(c2c1)CCNC3)c1cccnc1OCC(F)(F)F [Example 448] | < 500
9 | O=S(=O)(c1ccc2c3c(oc2c1)CNCC3)c1cccnc1F [Example 434] | < 500
10 | Cc1nc(COc2cccc(S(=O)(=O)c3ccc4c(c3)OC3CNCCC43)c2)cs1 (centres unmarked) [Example 569] | < 500
11 | CC12CCNCC1Oc1ccc(OS(=O)(=O)Cc3ccccc3)cc12 (centres unmarked) [Example 758, 4a-methyl-1,2,3,4,4a,9a-hexahydro[1]benzofuro[2,3-c]pyridin-6-yl phenylmethanesulfonate] | < 500
12 | O=S(=O)(c1ccc(-c2ccccc2)cc1)c1ccc2c(c1)OC1CNCCC21 (centres unmarked) [Example 145] | > 1000
13 | CC1(C)NCCc2c1oc1cc(S(=O)(=O)c3cccc(C(F)(F)F)c3)ccc21 [Example 289] | < 500
14 | O=S(=O)(Oc1ccc2c(c1)C1CCNCC1O2)c1ccc2c(c1)OCCO2 (centres unmarked) [Example 729] | < 500
15 | O=S(=O)(Oc1ccc2c(c1)C1CCNCC1O2)c1csc(C(F)(F)F)c1-c1ccccc1 (centres unmarked) [Example 747] | 500 to 1000
16 | O=S(=O)(c1cccnc1)c1ccc2c(c1)OC1CNCCC21 (centres unmarked) [Example 393] | > 1000
17 | N#Cc1ccc(S(=O)(=O)c2ccc3c(c2)OC2CNCCC32)cc1 (centres unmarked) [Example 139] | > 1000
18 | O=S(=O)(c1cccc(Cl)c1Cl)c1cccc2c1OC1CNCCC21 (centres unmarked) [Example 338] | < 500

Row | SMILES | Ki [nM]
19 | O=S(=O)(c1cccc(Cl)c1)c1ccc2c3c(oc2c1)C(C1CC1)NCC3 (centres unmarked) [Example 503] | < 500
20 | CC12CCNCC1Oc1cc(S(=O)(=O)c3cccc(C(F)(F)F)c3)ccc12 (centres unmarked) [Example 357] | < 500
21 | CC12CCNCC1Oc1cc(S(=O)(=O)c3cccc(F)c3)ccc12 (racemic) [Example 11, 7-[(3-fluorophenyl)sulfonyl]-4a-methyl-1,2,3,4,4a,9a-hexahydro[1]benzofuro[2,3-c]pyridine] | < 500
22 | CC12CCNCC1Oc1ccc(OS(=O)(=O)c3cccc4ccccc34)cc12 (centres unmarked) [Example 768] | 500 to 1000
23 | Cc1ccc(S(=O)(=O)Oc2ccc3c(c2)C2CCNCC2O3)cc1Cl (centres unmarked) [Example 719] | < 500
24 | O=S(=O)(c1cncc(C(F)(F)F)c1)c1ccc2c(c1)OC1CNCCC21 (centres unmarked) [Example 464] | < 500
25 | COc1ccc(OC)c(S(=O)(=O)Oc2ccc3c(c2)C2CCNCC2O3)c1 (centres unmarked) [Example 731] | < 500
26 | CCOc1cc(F)cc(S(=O)(=O)c2ccc3c(c2)OC2CNCCC32C)c1 (centres unmarked) [Example 426] | < 500
27 | O=S(=O)(Oc1ccc2c(c1)OC1CNCCC21)c1ccc(N2CCOCC2)nc1 (centres unmarked) [Example 683] | 500 to 1000
28 | O=S(=O)(c1ccc2c(c1)OC1CNCCC21)c1cc(F)cc(F)c1F (centres unmarked) [Example 386] | < 500
29 | O=S(=O)(c1cccc(OC(F)(F)F)c1)c1ccc2oc3c(c2c1)CCNC3 [Example 270, 6-{[3-(trifluoromethoxy)phenyl]sulfo-nyl}-1,2,3,4-tetrahydro[1]benzofuro[2,3-c]pyridine] | < 500
30 | COc1ccc(S(=O)(=O)c2ccc3oc4c(c3c2)CCNC4)cc1 [Example 245] | < 500
31 | O=S(=O)(c1ccccc1)c1ccc2c3c(oc2c1)[C@@]1(CCOC1)NCC3 (single isomer, unassigned) [Example 108] | < 500
32 | O=S(=O)(c1ccccc1)c1ccc2c(c1)OC1CNCCC21 (centres unmarked) [Example 321, 7-(phenylsulfonyl)-1,2,3,4,4a,9a-hexahydro[1]benzofuro[2,3-c]pyridine] | < 500
33 | O=S(=O)(Oc1ccc2c(c1)OC1CNCCC21)c1ccc(C(F)(F)F)cc1 (centres unmarked) [Example 673] | < 500
34 | CC12CCNCC1Oc1ccc(OS(=O)(=O)c3csc4ccccc34)cc12 (centres unmarked) [Example 771] | < 500
35 | CC12CCNCC1Oc1cc(S(=O)(=O)c3cncc(F)c3)ccc12 (centres unmarked) [Example 429] | > 1000
36 | CC(C)Oc1cccc(S(=O)(=O)c2ccc3c(c2)OC2CNCCC32C)c1 (single isomer, unassigned) [Example 21, 4a-methyl-7-{[3-(propan-2-yloxy)phenyl]sulfonyl}-1,2,3,4,4a,9a-hexahydro[1]benzofuro[2,3-c]pyridine] | < 500

Further lines, results first:

Row | Ki [nM] | SMILES
37 | > 1000 | [O-][S+](c1ccc2c3c(oc2c1)CNCC3)c1cccnc1Cl (centres unmarked) [Example 435]
38 | 500 to 1000 | COCCOc1cccc(S(=O)(=O)c2ccc3c(c2)OC2CNCCC32)c1 (centres unmarked) [Example 558]
39 | < 500 | O=S(=O)(c1ccc2oc3c(c2c1)CCNC3)c1ccccc1Cl [Example 276]
40 | < 500 | O=S(=O)(c1cccc(C(F)(F)F)c1)c1ccc2c3c(oc2c1)C1(CCOCC1)NCC3 [Example 298]
41 | < 500 | O=S(=O)(c1cccc(Cl)c1)c1ccc2c3c(oc2c1)C(CC(F)(F)F)NCC3 (centres unmarked) [Example 504]
42 | < 500 | COc1cccc(S(=O)(=O)c2ccc3c(c2)OC2CNCCC32)c1F (centres unmarked) [Example 404]
43 | < 500 | O=S(=O)(Oc1ccc2c(c1)C1CCNCC1O2)c1ccc(-c2ccon2)s1 (centres unmarked) [Example 742]
44 | > 1000 | O=S(=O)(Oc1ccc2c(c1)C1CCNCC1O2)c1ccc(-c2cnco2)cc1 (centres unmarked) [Example 734]
45 | < 500 | Cc1cc(C)cc(S(=O)(=O)Oc2ccc3c(c2)OC2CNCCC32)c1 (centres unmarked) [Example 648]
46 | < 500 | O=S(=O)(Oc1ccc2c(c1)OC1CNCCC21)c1ccc(Cl)c(Cl)c1 (centres unmarked) [Example 676]
47 | < 500 | O=S(=O)(Nc1ccc2c(c1)C1CCNCC1O2)c1cccc2ccccc12 (centres unmarked) [Example 825]
48 | < 500 | CC(C)Oc1cccc(S(=O)(=O)c2ccc3oc4c(c3c2)CCNC4)c1 [Example 267]
49 | 500 to 1000 | O=S(=O)(Nc1ccc2c(c1)C1CCNCC1O2)c1cc2ccccc2o1 (centres unmarked) [Example 833]
50 | 500 to 1000 | CC(C)(C)c1ccc(S(=O)(=O)Oc2ccc3c(c2)C2CCNCC2O3)cc1 (centres unmarked) [Example 727]
51 | > 1000 | O=C(COc1cccc(S(=O)(=O)c2ccc3c(c2)OC2CNCCC32)c1)N1CCCC1 (centres unmarked) [Example 564]
52 | > 1000 | Cc1ccc(NS(=O)(=O)c2ccc3c(c2)C2CCNCC2O3)cc1F (centres unmarked) [Example 851]

Row | Ki [nM] | SMILES
53 | > 1000 | O=S(=O)(Oc1ccc2c(c1)C1CCNCC1O2)c1ccc(Oc2ccccc2)nc1 (centres unmarked) [Example 746]
54 | < 500 | O=S(=O)(c1cncc(Cl)c1)c1ccc2c3c(oc2c1)CNCC3 [Example 437]
55 | < 500 | CC(C)CN1CCc2c(oc3cc(S(=O)(=O)c4ccccc4)ccc23)C1 [Example 593]
56 | < 500 | COc1cncc(S(=O)(=O)c2ccc3c4c(oc3c2)C(C)(C)NCC4)c1 [Example 370]
57 | < 500 | CC(C)(C)c1ccc(S(=O)(=O)Oc2ccc3c(c2)OC2CNCCC32)cc1 (centres unmarked) [Example 666]
58 | < 500 | CC1OCCC12NCCc1c2oc2cc(S(=O)(=O)c3cccc(F)c3)ccc12 (single isomer, unassigned) [Example 56, 7-[(3-Fluorophenyl)sulfonyl]-2′-methyl-3,4,4′,5′-tetrahydro-2H-spiro[1-benzofuro[2,3-c]pyridine-1,3′-furan]]
59 | < 500 | CCOCC1NCCc2c1oc1cc(S(=O)(=O)c3cccc(F)c3)ccc21 (racemic) [Example 33, 1-(ethoxymethyl)-7-[(3-fluorophenyl)sulfonyl]-1,2,3,4-tetrahydro[1]benzofuro[2,3-c]pyridine]
60 | < 500 | CC(=O)N1CCC2(CC1)NCCc1c2oc2cc(S(=O)(=O)c3cccc(F)c3)ccc12 [Example 41, 1-{7-[(3-fluorophenyl)sulfonyl]-3,4-dihydro-1′H,2H-spiro[1-benzofuro[2,3-c]pyridine-1,4′-piperidin]-1′-yl}ethanone]
61 | < 500 | O=S(=O)(c1ccccc1)c1ccc2c3c(oc2c1)CN(CCO)CC3 [Example 592, 2-[7-(Phenylsulfonyl)-3,4-dihydro[1]benzofuro[2,3-c]pyridin-2(1H)-yl]ethanol]
62 | < 500 | O=S(=O)(Oc1ccc2c(c1)OC1CNCCC21)c1ccc(-n2cccn2)cc1 (centres unmarked) [Example 671]
63 | < 500 | O=S(=O)(c1ccccc1)c1ccc2c3c(oc2c1)[C@]1(CCOC1)NCC3 (single isomer, unassigned) [Example 110]
64 | < 500 | O=S(=O)(c1cccc(OCC2CCOCC2)c1)c1ccc2c(c1)OC1CNCCC21 (single isomer, unassigned) [Example 548, 7-{[3-(Tetrahydro-2H-pyran-4-ylmethoxy)phenyl]sulfonyl}-1,2,3,4,4a,9a-hexahydro[1]benzofuro[2,3-c]pyridine]
65 | < 500 | O=S(=O)(c1ccc2c(c1)OC1CNCCC21)c1c(F)c(F)cc(F)c1F (centres unmarked) [Example 150]
66 | < 500 | CC(C)Oc1ncccc1S(=O)(=O)c1ccc2oc3c(c2c1)CCNC3 [Example 449]
67 | < 500 | O=S(=O)(Oc1ccc2c(c1)OC1CNCCC21)c1cccc2nsnc12 (centres unmarked) [Example 669]
68 | < 500 | O=S(=O)(c1ccccc1)c1ccc2c3c(oc2c1)CNCC3 [Example 339, 7-(phenylsulfonyl)-1,2,3,4-tetrahydro[1]benzofuro[2,3-c]pyridine]
